This data set in a line: log p. The format is physicochemical.

The values below come from patent US20090149455A1, “Use of Triazolopyrimidines for Controlling Plant Diseases on Legumes” (Bayer CropScience AG, priority 2005, published 2009).

`CC(Nc1c(-c2c(F)cc(F)cc2F)c(Cl)nc2ncnn12)C(F)(F)F` (stereo not drawn) [Example 1]: the log p is 2.87. Consider `CC(Nc1c(-c2c(F)cc(F)cc2F)c(Cl)nc2ncnn12)C(C)(C)C` (stereo not drawn) [Example 2], for which the log p was 3.54. As for `CC(C)C(C)Nc1c(-c2c(F)cc(F)cc2F)c(Cl)nc2ncnn12` (stereo not drawn) [Example 3], the figure is 3.2.

In turn, `CCC(C)Nc1c(-c2ccccc2F)c(Cl)nc2ncnn12` (stereo not drawn) [Example 4] came in with a log p of 2.73. Then `CCC(C)Nc1c(-c2c(F)cccc2F)c(Cl)nc2ncnn12` (stereo not drawn) [Example 5], with 2.71. As for `CCC(C)Nc1c(-c2ccc(F)cc2F)c(Cl)nc2ncnn12` (stereo not drawn) [Example 6], the figure is 2.85; as for `CCC(C)Nc1c(-c2ccccc2)c(Cl)nc2ncnn12` (stereo not drawn) [Example 7], 2.78. As for `CCC(C)Nc1c(-c2ccc(Cl)cc2Cl)c(Cl)nc2ncnn12` (stereo not drawn) [Example 8], the figure is 3.54; as for `CCC(C)Nc1c(-c2ccccc2Cl)c(Cl)nc2ncnn12` (stereo not drawn) [Example 9], 2.94; as for `CC(C)(C)CC(C)(C)Nc1c(-c2c(F)cc(F)cc2F)c(Cl)nc2ncnn12` [Example 10], 4.32. Turning to `CCC(C)CNc1c(-c2c(F)cc(F)cc2F)c(Cl)nc2ncnn12` (stereo not drawn) [Example 11], the log p is 3.26. As for `FCCCNc1c(-c2c(F)cc(F)cc2F)c(Cl)nc2ncnn12` [Example 12], the figure is 2.3; as for `C=CCN(CC)c1c(-c2c(F)cc(C(F)(F)F)cc2Cl)c(Cl)nc2ncnn12` [Example 13], 4.06. In turn, `C=CCN(C)c1c(-c2ccc(F)cc2F)c(Cl)nc2ncnn12` [Example 14] displayed a log p of 2.89. Then `C=CCN(CC)c1c(-c2ccc(F)cc2F)c(Cl)nc2ncnn12` [Example 15], with 3.19; and `CC(C)(Nc1c(-c2c(F)c(F)c(F)c(F)c2F)c(Cl)nc2ncnn12)C(F)(F)F` [Example 17], with 3.75; and `CCN(CC)c1c(-c2ccccc2F)c(Cl)nc2ncnn12` [Example 18], with 2.82. As for `CCNc1c(-c2c(F)cc(C(F)(F)F)cc2Cl)c(Cl)nc2ncnn12` [Example 21], the figure is 3.1; as for `CCN(CC)c1c(-c2c(F)c(F)c(F)c(F)c2F)c(Cl)nc2ncnn12` [Example 22], 3.44. Then `CCNc1c(-c2ccccc2F)c(Cl)nc2ncnn12` [Example 23], with 2.13; and `CCNc1c(-c2c(F)cccc2F)c(Cl)nc2ncnn12` [Example 24], with 2.14. `CCNc1c(-c2c(F)c(F)c(F)c(F)c2F)c(Cl)nc2ncnn12` [Example 25] returned a log p of 2.72.

As for `CCN(CC)c1c(-c2c(F)cc(F)cc2F)c(Cl)nc2ncnn12` [Example 26], the log p came out at 3.05. Then `CC(Nc1c(-c2c(F)cc(F)cc2F)c(Cl)nc2ncnn12)C(F)(F)F` (stereo not drawn) [Example 29], with 2.88. For the compound `CC(Nc1c(-c2c(F)cccc2Cl)c(Cl)nc2ncnn12)C(F)(F)F` (stereo not drawn) [Example 30], the log p came to 2.85. As for `Cc1cc(C)c(-c2c(Cl)nc3ncnn3c2NC(C)C(F)(F)F)c(C)c1` (stereo not drawn) [Example 35], the figure is 3.55; as for `C[C@H](Nc1c(-c2c(Cl)cc(C(F)(F)F)cc2Cl)c(Cl)nc2ncnn12)C(F)(F)F` [Example 36], 3.79; as for `C[C@H](Nc1c(-c2c(Cl)cc(OC(F)(F)F)cc2Cl)c(Cl)nc2ncnn12)C(F)(F)F` [Example 37], 3.89. For `CSc1cc(F)cc(F)c1-c1c(Cl)nc2ncnn2c1N[C@@H](C)C(F)(F)F` [Example 38], the log p is recorded as 3.17. Then `C[C@H](Nc1c(-c2cc(C(F)(F)F)ccc2C(F)(F)F)c(Cl)nc2ncnn12)C(F)(F)F` [Example 39], with 3.51; and `C[C@H](Nc1c(-c2cc(C(F)(F)F)ccc2Cl)c(Cl)nc2ncnn12)C(F)(F)F` [Example 40], with 3.4; and `C[C@H](Nc1c(-c2c(F)cc(C(F)(F)F)c(F)c2F)c(Cl)nc2ncnn12)C(F)(F)F` [Example 41], with 3.6. As for `C[C@H](Nc1c(-c2ccc(C(F)(F)F)c(F)c2F)c(Cl)nc2ncnn12)C(F)(F)F` [Example 42], the figure is 3.52.

Compound `CC(Nc1c(-c2ccc(F)c(Cl)c2)c(Cl)nc2ncnn12)C(F)(F)F` (stereo not drawn) [Example 43] had a log p of 3.18. With `C[C@H](Nc1c(-c2c(Cl)c(F)cc(C(F)(F)F)c2Cl)c(Cl)nc2ncnn12)C(F)(F)F` [Example 44], the log p is recorded as 3.74. Then `C[C@H](Nc1c(-c2ccc(C(F)(F)F)cc2F)c(Cl)nc2ncnn12)C(F)(F)F` [Example 45], with 3.33; and `CC(Nc1c(-c2ccc(F)cc2Cl)c(Cl)nc2ncnn12)C(F)(F)F` (stereo not drawn) [Example 46], with 3.04. As for `CC(Nc1c(-c2c(F)cccc2F)c(Cl)nc2ncnn12)C(F)(F)F` (stereo not drawn) [Example 47], the figure is 2.64; as for `CC(Nc1c(-c2c(F)c(F)c(F)c(F)c2F)c(Cl)nc2ncnn12)C(F)(F)F` (stereo not drawn) [Example 48], 3.3; as for `CC(Nc1c(-c2ccccc2F)c(Cl)nc2ncnn12)C(F)(F)F` (stereo not drawn) [Example 49], 2.69.

On to `C[C@H](Nc1c(-c2cc(SC(F)(F)F)ccc2Cl)c(Cl)nc2ncnn12)C(F)(F)F` [Example 50], for which the log p is listed as 3.78. Consider `C[C@H](Nc1c(-c2cccc(C(F)(F)F)c2Cl)c(Cl)nc2ncnn12)C(F)(F)F` [Example 51], for which the log p was determined as 3.36. As for `C[C@H](Nc1c(-c2ccc(F)cc2F)c(Cl)nc2ncnn12)C(F)(F)F` [Example 52], the figure is 2.81.

In turn, `C[C@H](Nc1c(-c2c(Cl)cccc2Cl)c(Cl)nc2ncnn12)C(F)(F)F` [Example 53] came in with a log p of 3.02. Then `C[C@H](Nc1c(-c2c(F)cc(F)cc2C(F)(F)F)c(Cl)nc2ncnn12)C(F)(F)F` [Example 54], with 3.16. Then `C[C@H](Nc1c(-c2cccc3c2OC(F)(F)O3)c(Cl)nc2ncnn12)C(F)(F)F` [Example 55], with 3.16. In the case of `CC(Nc1c(-c2c(F)cc(C(F)(F)F)cc2F)c(Cl)nc2ncnn12)C(F)(F)F` (stereo not drawn) [Example 56], the log p was found to be 3.09. As for `CC(Nc1c(-c2ccccc2Cl)c(Cl)nc2ncnn12)C(F)(F)F` (stereo not drawn) [Example 57], the figure is 2.88; as for `C[C@H](Nc1c(-c2ccccc2Cl)c(Cl)nc2ncnn12)C(F)(F)F` [Example 58], 2.87. As for `C[C@H](Nc1c(-c2ccc(F)cc2C(F)(F)F)c(Cl)nc2ncnn12)C(F)(F)F` [Example 59], the figure is 3.07; as for `C[C@@H](Nc1c(-c2c(F)cc(F)cc2F)c(Cl)nc2ncnn12)C(F)(F)F` [Example 60], 2.84.

For `C[C@@H](Nc1c(-c2ccc(F)cc2Cl)c(Cl)nc2ncnn12)C(F)(F)F` [Example 61], the log p stood at 3. Consider `C[C@H](Nc1c(-c2cc(F)ccc2F)c(Cl)nc2ncnn12)C(F)(F)F` [Example 62], for which the log p is 2.74.

Regarding `CC(Nc1c(-c2c(Cl)cc(OC(F)(F)F)cc2Cl)c(Br)nc2ncnn12)C(F)(F)F` (stereo not drawn) [Example 65], the log p was determined as 3.92. As for `CC(Nc1c(-c2c(F)cc(F)cc2F)c(Br)nc2ncnn12)C(F)(F)F` (stereo not drawn) [Example 66], the figure is 2.9; as for `CC(Nc1c(-c2c(F)cc(F)cc2F)c(Cl)nc2ncnn12)C(C)(C)C` (stereo not drawn) [Example 67], 3.53. Take `C[C@H](Nc1c(-c2c(F)cc(F)cc2F)c(Cl)nc2ncnn12)C(C)(C)C` [Example 68]: the log p came out at 3.54.

Consider `CC(Nc1c(-c2c(F)cccc2Cl)c(Cl)nc2ncnn12)C(C)(C)C` (stereo not drawn) [Example 69], for which the log p amounted to 3.58. Compound `C[C@@H](Nc1c(-c2c(F)cccc2Cl)c(Cl)nc2ncnn12)C(C)(C)C` [Example 70] registered a log p of 3.58.

Take `C[C@H](Nc1c(-c2c(F)cccc2Cl)c(Cl)nc2ncnn12)C(C)(C)C` [Example 71]: the log p came out at 3.63. As for `C[C@@H](Nc1c(-c2cc(F)ccc2F)c(Cl)nc2ncnn12)C(C)(C)C` [Example 72], the figure is 3.38.

For `CC(C)C(C)Nc1c(-c2c(F)cc(F)cc2F)c(Cl)nc2ncnn12` (stereo not drawn) [Example 73], the log p is 3.2. With `CC(C)C(C)Nc1c(-c2ccccc2)c(Cl)nc2ncnn12` (stereo not drawn) [Example 74], the log p was found to be 3.14. Then `CC(C)[C@H](C)Nc1c(-c2c(F)cc(F)cc2F)c(Cl)nc2ncnn12` [Example 77], with 3.17; and `CC(C)[C@@H](C)Nc1c(-c2cc(F)ccc2F)c(Cl)nc2ncnn12` [Example 78], with 3.05; and `Cc1nc2ncnn2c(N[C@H](C)C(C)C)c1-c1c(F)cccc1Cl` [Example 79], with 2.7. Turning to `CC(C)CC(C)Nc1c(-c2c(F)cc(F)cc2F)c(Cl)nc2ncnn12` (stereo not drawn) [Example 80], the log p is recorded as 3.59. As for `CC(C)CC(C)Nc1c(-c2ccc(F)cc2F)c(Cl)nc2ncnn12` (stereo not drawn) [Example 81], the figure is 3.53; as for `CNc1c(-c2c(F)cccc2F)c(Cl)nc2ncnn12` [Example 82], 1.84; as for `CNc1c(-c2c(F)cc(F)cc2F)c(Cl)nc2ncnn12` [Example 83], 2.01.

For the compound `CNc1c(-c2c(F)c(F)c(F)c(F)c2F)c(Cl)nc2ncnn12` [Example 84], the log p came to 2.41. With `CN(C)c1c(-c2ccccc2F)c(Cl)nc2ncnn12` [Example 85], the log p was 2.18. Then `CNc1c(-c2ccccc2F)c(Cl)nc2ncnn12` [Example 86], with 1.86; and `CN(C)c1c(-c2c(F)cccc2F)c(Cl)nc2ncnn12` [Example 87], with 2.19; and `C=C(C)CN(CC)c1c(-c2c(F)cc(F)cc2F)c(Cl)nc2ncnn12` [Example 90], with 3.6. As for `C=C(C)CNc1c(-c2ccccc2F)c(Cl)nc2ncnn12` [Example 91], the figure is 2.48; as for `C=C(C)CN(CC)c1c(-c2ccc(F)cc2F)c(Cl)nc2ncnn12` [Example 93], 3.54; as for `C=C(C)CNc1c(-c2c(F)cc(F)cc2F)c(Cl)nc2ncnn12` [Example 94], 2.63.
